In one data set the target is T1, hAPJ (Homo sapiens, UniProt P35414).
T1 sequence (P35414 1-380): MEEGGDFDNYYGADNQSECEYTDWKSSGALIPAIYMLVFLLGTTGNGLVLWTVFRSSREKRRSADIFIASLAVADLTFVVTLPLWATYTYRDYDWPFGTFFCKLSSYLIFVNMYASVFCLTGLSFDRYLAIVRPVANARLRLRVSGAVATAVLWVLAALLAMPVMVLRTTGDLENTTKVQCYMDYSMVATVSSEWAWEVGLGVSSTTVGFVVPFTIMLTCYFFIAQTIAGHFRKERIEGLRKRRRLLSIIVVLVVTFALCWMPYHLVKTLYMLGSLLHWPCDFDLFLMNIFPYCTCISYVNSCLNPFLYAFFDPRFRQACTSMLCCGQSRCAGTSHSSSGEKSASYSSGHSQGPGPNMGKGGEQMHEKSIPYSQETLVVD
Description: hAPJ Calcium flux assay. The data set is classed as cell-based. The method, then: Chem-5 APJ stable cells (Millipore # HTS068C) were plated in 384-well format with 10,000 cells/well in 25 ul growth media, then grown 24 hours in a 37° C. tissue culture incubator. One hour before the assay, 25 ul/well FLIPR Calcium 4 dye (Molecular Devices R8142) with 2.5 mM probenecid was added, and cells were incubated one hour in a 37° C. tissue culture incubator. Bioconjugates were solubilized in HBSS, HEPES & 0.1% BSA buffer, and serially-diluted 10-fold, from 50 uM to 5 pM, in triplicate. FLIPR Tetra was used to add bioconjugates to the cells with dye (1:5, for final bioconjugate concentrations ranging from 10 uM to 1 pM). FLIPR dye inside the cells emitted fluorescence after binding to calcium, while fluorescence from outside the cells was masked. Fluorescence was measured using 470-495 excitation and 515-575 emission wavelengths on the FLIPR Tetra. Readings were done for 3 minutes total, beginning 10 seconds before the bioconjugate addition. Maximum-minimum values were calculated and plotted for each bioconjugate concentration, and GraphPad prism software was used to calculate EC50 values at the curve inflection points, for calcium flux stimulation by bioconjugates.
Background: Calcium assays in cells follow changes in intracellular calcium, usually with a dye or a luminescent sensor.

Data set [1] in a line: Surrogate activity-based plasma stability assay. The data set is classed as in vitro ADME. The settings on record: rat. The source says:
Surrogate Activity-Based Plasma Stability Assay:
2) Calculate slope of value above and […]

Data set [2] can be described thus: In vivo pharmacokinetic assessment via SC dosing. The note with it: mouse, C57/B6 mice, subcutaneous dosing, plasma, read-out: t½ (converted). The method, then:
Protocols and Data for the In Vivo Pharmacokinetic Assessment Via SC Dosing. Formulation, Dosing and Sample Acquisition: […]
Example 1 and example 4 were dissolved to 0.1 mg/ml concentration in 30% (w/v) PEG300 and 5% (w/v) dextrose in PBS. C57/B6 mice (˜20 weeks of age) were dosed with dissolved compound by subcutaneous (SC) injection into the flank (n=4 per compound). Injection volume was 10 ml/kg. Blood samples were withdrawn from the saphenous vein at 3 and 6 hours post-dose, as well as at 1, 2, 4, 7 and 10 days post dose. Blood samples were immediately centrifuged at 4000×g for 10 min. Plasma supernatant (10 μL) was transferred to a 96-well plate and frozen at −80 C until analysis.
C57/B6J mice (˜22 weeks of age) were dosed with dissolved compound by SC injection (n=4). Blood samples were withdrawn from the tail vein at 15, 30, 60 and 120 minutes post injection. These were immediately centrifuged and then plasma supernatant was transferred to a 96-well plate and frozen at −80 C until analysis.
Preparation of Samples for Bioanalysis:
A pre-weighed sample of each compound (1-3 mg) was obtained and dissolved to 1 mg/ml in DMSO. These were diluted serially in mouse plasma (BioReclamation) to final concentrations of 10,000, 5,000, 1,000, 500, 100, 50, 10, 5, and 1 ng/ml to make standard curve for analysis.
Plasma samples from PK studies were thawed and diluted to 25 μL total volume by addition of mouse plasma.
25 μL aliquots of each sample and standard curve sample were arranged on a 96-well plate.
150 μL acetonitrile containing 100 ng/ml glyburide as internal standard was added to each sample and the samples vortexed for 30 seconds. Samples were then centrifuged at 4000×g for 10 minutes. 125 μL supernatant was then transferred to a fresh 96-well plate. 50 μL of water was added and mixed by vortexing for 30 seconds.
LC/MS Bioanalysis (Agilent 1290):
Samples (10 μL) were transferred to an HPLC using a CTC PAL autosampler. The LC column was ACE C18 30×2.1 mm, 3.0 μm bead. […]

The mark [3] stands for this setting: Chem-5 APJ stable cells, FLIPR calcium flux, read-out: hAPJ Ca^2+ Flux EC50.

Molecules are shown by their SMILES. pEC50: −log10 of the molar value. Like-named read-outs stand apart in the source and are kept apart here. Bridge positions count the residues as written; N and C are the ends. Square brackets hold non-standard residues; d marks the D form. Peptide text beside a SMILES is read from it. * marks the point of attachment. PEG24 = NCCOCCOCCOCCOCCOCCOCCOCCOCCOCCOCCOCCOCCOCCOCCOCCOCCOCCOCCOCCOCCOCCOCCOCCOCCC(=O)O; Malonyl(C11H23,(CH2)10COOH) = CCCCCCCCCCCC(CCCCCCCCCCC(=O)O)(C(=O)O)C(=O)*; PEG12 = NCCOCCOCCOCCOCCOCCOCCOCCOCCOCCOCCOCCOCCC(=O)O; pGlu = O=C1CC[C@@H](C(=O)O)N1; PEG4 = NCCOCCOCCOCCOCCC(=O)O; Nle = CCCC[C@H](N)C(=O)O Where only a bound is given, the exact number is not on record here.

As to `CCCCCCCCCCCC(CCCCCCCCCCC(=O)O)(C(=O)O)C(=O)NCCOCCOCCOCCOCCOCCOCCOCCOCCOCCOCCOCCOCCOCCOCCOCCOCCOCCOCCOCCOCCOCCOCCOCCOCCC(=O)N[C@@H](CCC(N)=O)C(=O)N[C@@H](CCCNC(=N)N)C(=O)N1CCC[C@H]1C(=O)N[C@@H](CCCNC(=N)N)C(=O)N[C@@H](CC(C)C)C(=O)N[C@H]1CSSC[C@@H](C(=O)N[C@@H](Cc2ccccc2)C(=O)O)NC(=O)[C@H](CCCC)NC(=O)[C@@H]2CCCN2C(=O)CNC(=O)[C@H](CCCCN)NC(=O)[C@H](Cc2cnc[nH]2)NC1=O` (stereo partly drawn) [Example 1, Fatty Acid-Linker#1Q-R-P-R-L-C*-H-K-G-P-(Nle)-C*-F (C6-C12 Disulfide Bridge)] ({Malonyl(C11H23,(CH2)10COOH)-PEG24}-QRPRLCHKGP[Nle]CF-OH; disulfide 6-12), the pEC50 at hAPJ (setting [3]) was 6.95. Besides, the results for the half-life in data set [1] and in data set [2] (1 mg/kg) were above 16.7 h and 43 h, respectively.

For the compound `CCCCCCCCCCCC(CCCCCCCCCCC(=O)O)(C(=O)O)C(=O)NCCOCCOCCOCCOCCOCCOCCOCCOCCOCCOCCOCCOCCC(=O)N[C@@H](CCC(N)=O)C(=O)N[C@@H](CCCNC(=N)N)C(=O)N1CCC[C@H]1C(=O)N[C@@H](CCCNC(=N)N)C(=O)N[C@@H](CC(C)C)C(=O)N[C@H]1CSSC[C@@H](C(=O)N[C@@H](Cc2ccccc2)C(=O)O)NC(=O)[C@H](CCCC)NC(=O)[C@@H]2CCCN2C(=O)CNC(=O)[C@H](CCCCN)NC(=O)[C@H](Cc2cnc[nH]2)NC1=O` (some centres unmarked) [Example 2] ({Malonyl(C11H23,(CH2)10COOH)-PEG12}-QRPRLCHKGP[Nle]CF-OH; disulfide 6-12), the pEC50 on hAPJ (setting [3]) was 7.07. The compound further showed a half-life in data set [1] above 16.7 h.

Regarding `CCCCCCCCCCCC(CCCCCCCCCCC(=O)O)(C(=O)O)C(=O)NCCOCCOCCOCCOCCC(=O)N[C@@H](CCC(N)=O)C(=O)N[C@@H](CCCNC(=N)N)C(=O)N1CCC[C@H]1C(=O)N[C@@H](CCCNC(=N)N)C(=O)N[C@@H](CC(C)C)C(=O)N[C@H]1CSSC[C@@H](C(=O)N[C@@H](Cc2ccccc2)C(=O)O)NC(=O)[C@H](CCCC)NC(=O)[C@@H]2CCCN2C(=O)CNC(=O)[C@H](CCCCN)NC(=O)[C@H](Cc2cnc[nH]2)NC1=O` (some centres unmarked) [Example 4] ({Malonyl(C11H23,(CH2)10COOH)-PEG4}-QRPRLCHKGP[Nle]CF-OH; disulfide 6-12), the pEC50 on hAPJ (setting [3]) is 6.80. Moreover, the half-life was above 16.7 h in data set [1] and 23 h in data set [2] (1 mg/kg).

In the case of `CCCC[C@@H]1NC(=O)[C@@H]2CCCN2C(=O)CNC(=O)[C@H](CCCCN)NC(=O)[C@H](Cc2cnc[nH]2)NC(=O)[C@@H](NC(=O)[C@H](CC(C)C)NC(=O)[C@H](CCCNC(=N)N)NC(=O)[C@@H]2CCCN2C(=O)[C@H](CCCNC(=N)N)NC(=O)[C@@H]2CCC(=O)N2)CSSC[C@@H](C(=O)N[C@@H](Cc2ccccc2)C(=O)O)NC1=O` [pE-R-P-R-L-C*-H-K-G-P-Nle-C*-F-OH, reference compound] ([pGlu]RPRLCHKGP[Nle]CF-OH; disulfide 6-12), on hAPJ, the pEC50 is 9.00. Besides, the values for the half-life in data set [1] and in data set [2] were 2.2 h and 0.52 h, respectively.

By pEC50 is commonly meant −log10 of the EC50, conventionally taken in molar units.

For the origin of these results see patent US9931372B2, “Synthetic apelin fatty acid conjugates with improved half-life” (Novartis AG, priority 2015, dated 2018).
